The source made the active and inactive calls. No cut-off for these calls is given here.
Assays:
[1] = target: T1, Serine/threonine-protein kinase 24 (Homo sapiens, UniProt Q9Y6E0); test: Binding affinity to C-terminal full length human MST3 expressed in intact HEK293T cells incubated for 2 hrs by NanoBRET assay; assay type: cell-based
Target sequence in this assay (Q9Y6E0 whole entry): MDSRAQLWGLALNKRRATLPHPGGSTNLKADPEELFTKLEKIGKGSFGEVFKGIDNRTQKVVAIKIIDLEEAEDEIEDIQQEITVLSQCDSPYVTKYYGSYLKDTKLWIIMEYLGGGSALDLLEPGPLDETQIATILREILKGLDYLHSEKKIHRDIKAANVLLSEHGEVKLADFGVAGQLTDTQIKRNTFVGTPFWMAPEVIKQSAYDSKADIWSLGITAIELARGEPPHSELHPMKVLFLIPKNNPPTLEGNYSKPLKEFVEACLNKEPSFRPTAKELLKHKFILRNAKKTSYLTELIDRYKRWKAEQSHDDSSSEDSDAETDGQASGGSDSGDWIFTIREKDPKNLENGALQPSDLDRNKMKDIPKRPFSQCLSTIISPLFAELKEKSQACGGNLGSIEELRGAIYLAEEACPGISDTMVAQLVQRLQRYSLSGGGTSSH

[2] = target: T1, Serine/threonine-protein kinase 24; test: Binding affinity to C-terminal full length human MST3 expressed in permeabilized HEK293T cells incubated for 2 hrs by NanoBRET assay; assay type: cell-based
Target sequence in this assay (Q9Y6E0 whole entry): as above

[3] = target: T2, Serine/threonine-protein kinase 4 (Homo sapiens, UniProt Q13043); test: Binding affinity to N-terminal full length human MST1 expressed in intact HEK293T cells incubated for 2 hrs by NanoBRET assay; assay type: cell-based
T2 sequence (Q13043 whole entry): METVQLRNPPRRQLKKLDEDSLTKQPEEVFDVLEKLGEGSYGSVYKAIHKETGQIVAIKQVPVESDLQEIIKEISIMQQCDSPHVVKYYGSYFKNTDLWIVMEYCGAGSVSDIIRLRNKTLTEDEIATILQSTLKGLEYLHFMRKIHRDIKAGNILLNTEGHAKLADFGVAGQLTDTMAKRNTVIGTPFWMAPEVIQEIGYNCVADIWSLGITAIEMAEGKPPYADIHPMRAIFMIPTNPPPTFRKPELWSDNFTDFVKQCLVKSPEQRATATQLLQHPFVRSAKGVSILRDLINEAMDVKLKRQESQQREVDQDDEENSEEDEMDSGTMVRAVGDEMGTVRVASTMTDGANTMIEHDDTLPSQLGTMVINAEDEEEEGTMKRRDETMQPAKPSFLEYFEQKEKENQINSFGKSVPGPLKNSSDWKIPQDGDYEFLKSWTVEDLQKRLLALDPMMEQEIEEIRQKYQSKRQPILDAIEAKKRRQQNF

[4] = target: T3, Serine/threonine-protein kinase 26 (Homo sapiens, UniProt Q9P289); test: Binding affinity to C-terminal full length human MST4 expressed in permeabilized HEK293T cells incubated for 2 hrs by NanoBRET assay; assay type: cell-based
Target sequence in this assay (Q9P289 whole entry): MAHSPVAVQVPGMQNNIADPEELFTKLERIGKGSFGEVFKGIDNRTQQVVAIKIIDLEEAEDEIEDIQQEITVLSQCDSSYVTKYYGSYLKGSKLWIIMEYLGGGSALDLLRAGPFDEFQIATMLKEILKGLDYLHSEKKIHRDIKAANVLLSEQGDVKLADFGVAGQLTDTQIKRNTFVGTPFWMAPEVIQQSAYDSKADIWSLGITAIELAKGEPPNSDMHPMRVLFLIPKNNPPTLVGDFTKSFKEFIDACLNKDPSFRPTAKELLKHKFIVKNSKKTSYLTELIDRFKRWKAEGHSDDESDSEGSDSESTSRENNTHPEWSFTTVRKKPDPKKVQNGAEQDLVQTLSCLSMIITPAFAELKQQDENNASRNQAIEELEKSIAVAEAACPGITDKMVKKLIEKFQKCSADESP

[5] = target: T3, Serine/threonine-protein kinase 26; details: dose 10.0 µM
Target sequence in this assay (Q9P289 2-416 limits assumed): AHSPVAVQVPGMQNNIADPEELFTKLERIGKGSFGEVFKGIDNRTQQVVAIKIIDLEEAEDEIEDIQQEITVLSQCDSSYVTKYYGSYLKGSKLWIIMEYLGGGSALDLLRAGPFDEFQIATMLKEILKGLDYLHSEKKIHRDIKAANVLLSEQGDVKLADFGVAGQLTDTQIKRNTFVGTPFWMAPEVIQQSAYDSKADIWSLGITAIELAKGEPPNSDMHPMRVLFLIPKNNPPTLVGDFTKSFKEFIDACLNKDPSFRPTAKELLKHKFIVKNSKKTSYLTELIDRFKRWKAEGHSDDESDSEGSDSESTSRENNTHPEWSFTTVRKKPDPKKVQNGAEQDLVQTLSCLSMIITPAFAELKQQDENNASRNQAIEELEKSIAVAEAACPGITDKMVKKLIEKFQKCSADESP
Description: Binding affinity to recombinant MST4 (unknown origin) kinase domain assessed as thermal stabilization by measuring change in melting temperature at 10 uM by DSF analysis

[6] = target: T1, Serine/threonine-protein kinase 24; details: dose 10.0 µM
Target sequence in this assay (Q9Y6E0 whole entry, looked up): as the sequence (Q9Y6E0 whole entry) above
Description: Binding affinity to recombinant MST3 (unknown origin) kinase domain assessed as thermal stabilization by measuring change in melting temperature at 10 uM by DSF analysis

[7] = target: T4, Serine/threonine-protein kinase 3 (Homo sapiens, UniProt Q13188); test: Binding affinity to N-terminal full length human MST2 expressed in intact HEK293T cells incubated for 2 hrs by NanoBRET assay; assay type: cell-based
T4 sequence (Q13188 whole entry): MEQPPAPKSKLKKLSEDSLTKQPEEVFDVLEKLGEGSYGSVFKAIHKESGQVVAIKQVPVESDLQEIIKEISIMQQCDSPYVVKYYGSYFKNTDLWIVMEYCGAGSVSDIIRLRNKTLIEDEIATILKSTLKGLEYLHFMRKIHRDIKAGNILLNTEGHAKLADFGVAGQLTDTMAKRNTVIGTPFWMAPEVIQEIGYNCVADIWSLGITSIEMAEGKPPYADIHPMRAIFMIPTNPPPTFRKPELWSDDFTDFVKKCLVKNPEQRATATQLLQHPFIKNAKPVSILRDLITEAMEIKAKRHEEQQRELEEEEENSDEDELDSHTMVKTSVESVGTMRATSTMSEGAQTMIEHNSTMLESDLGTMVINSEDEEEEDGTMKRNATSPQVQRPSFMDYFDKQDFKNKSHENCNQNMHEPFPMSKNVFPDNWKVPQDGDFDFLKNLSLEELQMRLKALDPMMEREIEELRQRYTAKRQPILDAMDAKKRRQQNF

[8] = target: Glycogen synthase kinase-3 beta (Homo sapiens) (UniProt P49841); test: Binding affinity to GSK3B (unknown origin) assessed as thermal stabilization by measuring change in melting temperature by DSF analysis
[9] = target: T5, Serine/threonine-protein kinase 3 (Homo sapiens) (UniProt Q13188); details: dose 10.0 µM
T5 sequence (whole entry): T4 sequence (Q13188 whole entry)
Description: Binding affinity to recombinant MST2 (unknown origin) kinase domain assessed as thermal stabilization by measuring change in melting temperature at 10 uM by DSF analysis

[10] = target: T6, Serine/threonine-protein kinase 4 (Homo sapiens) (UniProt Q13043); details: dose 10.0 µM
T6 sequence (whole entry): T2 sequence (Q13043 whole entry)
Description: Binding affinity to recombinant MST1 (unknown origin) kinase domain assessed as thermal stabilization by measuring change in melting temperature at 10 uM by DSF analysis

[11] = target: T3, Serine/threonine-protein kinase 26; test: Binding affinity to C-terminal full length human MST4 expressed in intact HEK293T cells incubated for 2 hrs by NanoBRET assay; assay type: cell-based
Target sequence in this assay (Q9P289 whole entry): as the sequence (Q9P289 whole entry) above

HCT-116 [12] = test: Cell cycle arrest in human HCT-116 cells expressing […] assessed as G1 phase cells at 10 uM incubated for 72 hrs by Hoechst33342 staining based analysis (reference value: 52%); assay type: functional
[13] = target: T5, Serine/threonine-protein kinase 3 (Homo sapiens); test: Binding affinity to MST2 (unknown origin) assessed as residual activity at 10 uM relative to control
HCT-116 [14] = test: Cell cycle arrest in human HCT-116 cells expressing […] assessed as S phase cells at 1 uM incubated for 72 hrs by Hoechst33342 staining based analysis relative to control; assay type: functional
[15] = target: T6, Serine/threonine-protein kinase 4 (Homo sapiens); test: Binding affinity to MST1 (unknown origin) assessed as residual activity at 10 uM relative to control
HCT-116 [16] = test: Cell cycle arrest in human HCT-116 cells expressing […] assessed as S phase cells at 10 uM incubated for 72 hrs by Hoechst33342 staining based analysis relative to control; assay type: functional
[17] = Toxicity in human HCT-116 cells expressing FUCCI assessed as decrease in normalized cell count at 1 to 10 uM measured after 72 hrs by Hoechst33342 staining based analysis relative to control; set-up: scale not given: the % may be the effect or the level left; details: hct-116, 72 h, dose 1-10 µM
[18] = target: T3, Serine/threonine-protein kinase 26; test: Binding affinity to MST4 (unknown origin) assessed as residual activity at 10 uM relative to control
Target sequence in this assay (Q9P289 2-416 limits assumed): as the sequence (Q9P289 2-416 limits assumed) above

HCT-116 [19] = test: Cell cycle arrest in human HCT-116 cells expressing […] assessed as G2/M phase cells at 1 uM incubated for 72 hrs by Hoechst33342 staining based analysis (reference value: 38%); assay type: functional
HCT-116 [20] = test: Cell cycle arrest in human HCT-116 cells expressing […] assessed as G2/M phase cells at 10 uM incubated for 72 hrs by Hoechst33342 staining based analysis (reference value: 38%); assay type: functional
HCT-116 [21] = test: Cell cycle arrest in human HCT-116 cells expressing […] assessed as G1 phase cells at 1 uM incubated for 72 hrs by Hoechst33342 staining based analysis (reference value: 52%); assay type: functional

Chain of Glycogen synthase kinase-3 beta (Homo sapiens) (P49841 whole entry, looked up): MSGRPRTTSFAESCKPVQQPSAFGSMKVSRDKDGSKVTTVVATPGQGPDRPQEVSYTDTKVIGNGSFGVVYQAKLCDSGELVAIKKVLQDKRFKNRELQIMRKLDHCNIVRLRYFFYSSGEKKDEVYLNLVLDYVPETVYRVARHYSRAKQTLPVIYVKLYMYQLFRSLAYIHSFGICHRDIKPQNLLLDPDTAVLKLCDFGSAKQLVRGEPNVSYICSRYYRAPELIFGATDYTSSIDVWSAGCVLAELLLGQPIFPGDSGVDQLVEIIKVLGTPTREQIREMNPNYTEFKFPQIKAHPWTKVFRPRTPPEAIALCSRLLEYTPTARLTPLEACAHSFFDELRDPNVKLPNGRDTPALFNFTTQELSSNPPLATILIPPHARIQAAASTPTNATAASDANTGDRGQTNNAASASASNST

Row | SMILES | EC50 [1] [µM] | EC50 [2] [µM] | EC50 [3] [µM] | EC50 [4] [µM] | ΔTm [5] [°C] | ΔTm [6] [°C] | EC50 [7] [µM] | ΔTm [9] [°C] | ΔTm [10] [°C] | EC50 [11] [µM] | further results
1 | O=C1NCCCCCCNc2nc(c3ccccc3n2)Nc2cc1[nH]n2 | 1.75 | 0.45 | > 50 | 1.26 | 4 | 3.7 | 40.1 | 0.4 | 0.7 |  | ΔTm [8]: > 5 °C
2 | O=C1NCCc2cccc(c2)Nc2ncc(Cl)c(n2)Nc2cc1[nH]n2 | 14.1 | 8.53 | 7.84 | 10.3 | 0.6 | 2.9 | 7.54 | 1.7 | 0.8 | 10.2 | 
3 | O=C1NCCc2cccc(c2)Nc2nc(c3ccccc3n2)Nc2cc1[nH]n2 | 6.51 | 0.92 | 13.7 | 2.44 | 4 | 3.9 | 13 | 1.3 | 1.7 | 11.8 | 
4 | N#CCc1ccc(Nc2nccc(Nc3cc(C4CC4)[nH]n3)n2)cc1 | 6.54 |  |  |  | 7.1 | 9.3 |  | 11.6 | 9.6 | 4.84 | Activity (HCT-116 [12]): 42%; Activity [13]: 0.15%; Activity (HCT-116 [14]): 18%; Activity [15]: 0.15%; Activity (HCT-116 [16]): 16%; Activity [17]: < 50%; Activity [18]: 0.15%; Activity (HCT-116 [19]): 30%; Activity (HCT-116 [20]): 42%; Activity (HCT-116 [21]): 52%
5 | O=C1NCCc2ccc(cc2)Nc2nc(c3ccccc3n2)Nc2cc1[nH]n2 | 4.45 | 1.46 | 28.6 | 2.75 | 4.7 | 3.3 | 28.3 | 2.3 | 1 | 17.5 | 
6 | CNC(=O)c1nn(C)c2c1C(C)(C)Cc1cnc(Nc3ccc(N4CCN(C)CC4)cc3)nc1-2 [MILCICLIB] |  |  |  |  |  |  |  |  |  |  | Activity (HCT-116 [12]): 63%; Activity (HCT-116 [16]): 16%; Activity (HCT-116 [19]): 19%; Activity (HCT-116 [20]): 21%; Activity (HCT-116 [21]): 72%
7 | Cc1cnc2nc1Nc1cc([nH]n1)C(=O)NCCc1ccc(cc1)N2 | 37 | 38.3 | > 50 | > 50 | 2.3 | 0.5 | > 50 | 0.2 | 1 | 38.8 | 

Second part, led by results:

Row | EC50 [1] [µM] | EC50 [2] [µM] | EC50 [3] [µM] | EC50 [4] [µM] | ΔTm [5] [°C] | ΔTm [6] [°C] | EC50 [7] [µM] | ΔTm [9] [°C] | ΔTm [10] [°C] | EC50 [11] [µM] | SMILES | further results
8 | 40.3 | 2.67 | 9.74 | 7.76 | 1.6 | 2.7 | 10.1 | 2.8 | 2.5 | > 50 | O=C1NCCCCCNc2ncc(Cl)c(n2)Nc2cc1[nH]n2 | 
9 | 4.49 | 1.23 | > 50 | 4.3 | 2.5 | 2.5 | > 50 | 0.5 | 0.6 | 37.6 | O=C1NCCOCCNc2nc(c3ccccc3n2)Nc2cc1[nH]n2 | Activity [8]: inactive
10 | > 50 | 17.7 | > 50 | 41.8 | 2.8 | 0.6 | > 50 | 0.6 | 1.1 | > 50 | O=C1NCCOCCNc2ncc(Cl)c(n2)Nc2cc1[nH]n2 | 
11 | > 50 | 21.9 | > 50 | 45 | 2.1 | 0.3 | > 50 | 1 | 1.5 | > 50 | O=C1NCCCCCCNc2ncc(Cl)c(n2)Nc2cc1[nH]n2 | 
12 | 4.97 | 5.17 | 11.8 | 7.61 | 0.7 | 1.2 | 9.96 | 0.7 | 0.3 | 6.71 | O=C1NCCc2ccc(cc2)Nc2ncc(Cl)c(n2)Nc2cc1[nH]n2 | 

Source: ChEMBL document CHEMBL5532666 (J Med Chem, 2024)
